# Measured values taken from US20250236589A1, “THERAPEUTIC PHENETHYLAMINE COMPOSITIONS AND METHODS OF USE” (Cybin IRL Limited, priority 2022, published 2025).
# Read-outs that look alike come from different tables or passages of the source.
# What was measured:
# 5-HT2C receptor = 5-HT2C receptor (Homo sapiens (Human), UniProt P28335); experiment: 5-HT2C agonist radioligand binding ([125I]DOI)
# Text: 5-HT2 Receptor Activity. […] Drug Test Anal 2012, 4 (7-8), 556-76. Ray, T. S., Psychedelics and the human receptorome. PLoS One 2010, 5 (2), e9019].
# 5-HT2A receptor = 5-HT2A receptor (Homo sapiens (Human), UniProt P28223); experiment: 5-HT2A functional assay, IP1 (IPOne); type: cell-based; conditions: for Emax: relative to 5-HT
# Experimental: After incubation, cells were lysed and fluorescence acceptor and donor were added. FRET was measured after 60 min at room temperature using a microplate reader (Envision, Perkin Elmer). TRUPATH assays followed a similar workflow, except that different reagents were used, and LiCl was not included in the samples; the protocol was based on the report by Olsen, R. H. J. et al., cited above.
# 5-HT6 (h) = 5-HT6 (h) (Homo sapiens (Human), UniProt P50406); experiment: Off-target screen, radioligand displacement at 10 μM; type: binding; conditions: agonist radioligand
# Muscarinic M5 (h) = Muscarinic M5 (h) (Homo sapiens (Human), UniProt P08912); experiment: as above; type: binding; conditions: antagonist radioligand
# 5-HT1B (h) = 5-HT1B (h) (Homo sapiens (Human), UniProt P28222); experiment: as above; type: binding; conditions: antagonist radioligand
# [1] = system: Na+ channel (site 2) (rat cortex); experiment: as above; type: binding; conditions: antagonist radioligand
# [2] = system: sigma (non-selective) (h); experiment: as above; type: binding, human; conditions: agonist radioligand
# Adrenergic β2 (h) = Adrenergic β2 (h) (Homo sapiens (Human), UniProt P07550); experiment: as above; type: binding; conditions: antagonist radioligand
# Histamine H1 (h) = Histamine H1 (h) (Homo sapiens (Human), UniProt P35367); experiment: as above; type: binding
# 5-HT3 (h) = 5-HT3 (h) (Homo sapiens (Human), UniProt P46098); experiment: as above; conditions: antagonist, read-out: binding at 10 μM
# Adenosine A1 (h) = Adenosine A1 (h) (Homo sapiens (Human), UniProt P30542); experiment: as above; conditions: read-out: binding at 10 μM
# Adenosine A2A (h) = Adenosine A2A (h) (Homo sapiens (Human), UniProt P29274); experiment: as above; type: binding
# Adenosine A3 (h) = Adenosine A3 (h) (Homo sapiens (Human), UniProt P0DMS8); experiment: as above; conditions: read-out: binding at 10 μM
# [3] = target: BZD (peripheral) (rat heart) (Rattus norvegicus (Rat), UniProt P16257); experiment: as above; conditions: read-out: binding at 10 μM
# [4] = system: BB (nonselective) (rat cortex); experiment: as above; type: binding
# [5] = target: Cholecystokinin CCK2 (CCKB) (h) (Homo sapiens (Human), UniProt P32239); experiment: as above; conditions: read-out: binding at 10 μM
# D5 (h) = D5 (h) (Homo sapiens (Human), UniProt P21918); experiment: as above; conditions: read-out: binding at 10 μM
# Endothelin ETA (h) = Endothelin ETA (h) (Homo sapiens (Human), UniProt P25101); experiment: as above; conditions: read-out: binding at 10 μM
# Galanin GAL1 (h) = Galanin GAL1 (h) (Homo sapiens (Human), UniProt P47211); experiment: as above; conditions: read-out: binding at 10 μM
# Chemokine CCR1 (h) = Chemokine CCR1 (h) (Homo sapiens (Human), UniProt P32246); experiment: as above; conditions: read-out: binding at 10 μM
# TNF-α (h) = experiment: as above; type: binding, human
# Histamine H2 (h) = Histamine H2 (h) (Homo sapiens (Human), UniProt P25021); experiment: as above; conditions: read-out: binding at 10 μM
# Tachykinin NK1 (h) = Tachykinin NK1 (h) (Homo sapiens (Human), UniProt P25103); experiment: as above; conditions: read-out: binding at 10 μM
# Tachykinin NK3 (h) = Tachykinin NK3 (h) (Homo sapiens (Human), UniProt P29371); experiment: as above; conditions: read-out: binding at 10 μM
# Neuropeptide Y Y1 (h) = Neuropeptide Y Y1 (h) (Homo sapiens (Human), UniProt P25929); experiment: as above; conditions: read-out: binding at 10 μM
# Neurotensin NT1 (h) = Neurotensin NT1 (h) (Homo sapiens (Human), UniProt P30989); experiment: as above; conditions: read-out: binding at 10 μM
# κ-opioid (h) = κ-opioid (h) (Homo sapiens (Human), UniProt P41145); experiment: as above; conditions: read-out: binding at 10 μM
# Orphanin ORL1 (h) = Orphanin ORL1 (h) (Homo sapiens (Human), UniProt P41146); experiment: as above; conditions: read-out: binding at 10 μM
# PPARγ (h) = PPARγ (h) (Homo sapiens (Human), UniProt P37231); experiment: as above; conditions: read-out: binding at 10 μM
# Prostaglandin EP2 (h) = Prostaglandin EP2 (h) (Homo sapiens (Human), UniProt P43116); experiment: as above; conditions: read-out: binding at 10 μM
# [6] = target: Prostacyclin IP (PGI2) (h) (Homo sapiens (Human), UniProt P43119); experiment: as above; conditions: read-out: binding at 10 μM
# [7] = system: P2X (ATP) (rat urinary bladder); experiment: as above; type: binding
# P2Y (ATP) (rat cortex) = experiment: as above; type: binding
# Vasopressin V1a (h) = Vasopressin V1a (h) (Homo sapiens (Human), UniProt P37288); experiment: as above; conditions: read-out: binding at 10 μM
# [8] = system: Potassium KV channel (rat cortex); experiment: as above; type: binding
# [9] = system: Chloride Cl— channel (GABA-gated) (rat cortex); experiment: as above; type: binding
# Chain of 5-HT2C receptor (P28335 whole entry, looked up): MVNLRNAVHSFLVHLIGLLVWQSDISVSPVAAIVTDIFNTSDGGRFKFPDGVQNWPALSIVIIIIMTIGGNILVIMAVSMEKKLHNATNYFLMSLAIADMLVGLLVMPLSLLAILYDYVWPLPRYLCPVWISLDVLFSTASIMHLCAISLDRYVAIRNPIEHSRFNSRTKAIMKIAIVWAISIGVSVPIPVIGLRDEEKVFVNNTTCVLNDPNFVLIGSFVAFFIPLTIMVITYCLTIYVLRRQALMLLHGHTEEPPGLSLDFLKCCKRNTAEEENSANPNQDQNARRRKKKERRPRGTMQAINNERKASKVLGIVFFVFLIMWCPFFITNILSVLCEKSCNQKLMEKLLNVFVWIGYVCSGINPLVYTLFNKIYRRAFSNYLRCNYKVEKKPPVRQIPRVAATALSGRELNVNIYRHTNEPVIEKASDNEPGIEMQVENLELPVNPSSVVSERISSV
# Chain of Cholecystokinin CCK2 (CCKB) (h) (P32239 whole entry, looked up): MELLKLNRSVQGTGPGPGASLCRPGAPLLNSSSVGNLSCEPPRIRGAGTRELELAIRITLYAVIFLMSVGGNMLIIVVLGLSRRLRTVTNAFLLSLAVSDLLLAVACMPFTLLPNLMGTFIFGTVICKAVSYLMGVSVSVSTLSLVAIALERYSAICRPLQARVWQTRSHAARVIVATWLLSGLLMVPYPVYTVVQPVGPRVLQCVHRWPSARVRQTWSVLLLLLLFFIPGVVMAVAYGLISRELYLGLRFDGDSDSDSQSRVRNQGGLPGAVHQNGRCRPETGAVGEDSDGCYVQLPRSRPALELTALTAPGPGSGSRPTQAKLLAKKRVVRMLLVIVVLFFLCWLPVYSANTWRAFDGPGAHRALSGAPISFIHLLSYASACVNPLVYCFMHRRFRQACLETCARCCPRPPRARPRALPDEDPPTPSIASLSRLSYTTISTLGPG
# Chain of 5-HT1B (h) (P28222 whole entry, looked up): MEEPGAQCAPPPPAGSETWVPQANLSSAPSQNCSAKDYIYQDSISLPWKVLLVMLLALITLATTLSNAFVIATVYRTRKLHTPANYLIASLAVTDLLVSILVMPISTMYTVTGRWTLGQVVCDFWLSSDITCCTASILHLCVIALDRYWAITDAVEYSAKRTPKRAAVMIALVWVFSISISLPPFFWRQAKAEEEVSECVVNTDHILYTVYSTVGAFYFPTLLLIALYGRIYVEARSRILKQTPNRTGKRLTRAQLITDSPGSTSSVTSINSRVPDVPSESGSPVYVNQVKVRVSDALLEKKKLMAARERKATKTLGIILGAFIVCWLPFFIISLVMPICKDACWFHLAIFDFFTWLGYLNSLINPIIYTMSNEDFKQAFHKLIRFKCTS
# Chain of Histamine H1 (h) (P35367 whole entry, looked up): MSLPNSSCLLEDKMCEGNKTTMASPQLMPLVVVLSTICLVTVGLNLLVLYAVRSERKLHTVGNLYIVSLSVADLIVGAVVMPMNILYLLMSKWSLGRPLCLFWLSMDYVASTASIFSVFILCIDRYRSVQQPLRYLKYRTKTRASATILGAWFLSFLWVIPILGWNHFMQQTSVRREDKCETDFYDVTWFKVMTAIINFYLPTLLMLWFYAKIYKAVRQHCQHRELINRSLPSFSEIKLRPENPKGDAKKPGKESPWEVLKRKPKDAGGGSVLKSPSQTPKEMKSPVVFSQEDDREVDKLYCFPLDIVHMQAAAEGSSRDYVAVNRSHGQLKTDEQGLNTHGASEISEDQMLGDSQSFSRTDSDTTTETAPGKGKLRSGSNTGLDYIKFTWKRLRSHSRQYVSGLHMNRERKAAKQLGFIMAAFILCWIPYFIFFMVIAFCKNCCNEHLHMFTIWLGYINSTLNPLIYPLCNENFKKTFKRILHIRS
# Chain of Adrenergic β2 (h) (P07550 whole entry, looked up): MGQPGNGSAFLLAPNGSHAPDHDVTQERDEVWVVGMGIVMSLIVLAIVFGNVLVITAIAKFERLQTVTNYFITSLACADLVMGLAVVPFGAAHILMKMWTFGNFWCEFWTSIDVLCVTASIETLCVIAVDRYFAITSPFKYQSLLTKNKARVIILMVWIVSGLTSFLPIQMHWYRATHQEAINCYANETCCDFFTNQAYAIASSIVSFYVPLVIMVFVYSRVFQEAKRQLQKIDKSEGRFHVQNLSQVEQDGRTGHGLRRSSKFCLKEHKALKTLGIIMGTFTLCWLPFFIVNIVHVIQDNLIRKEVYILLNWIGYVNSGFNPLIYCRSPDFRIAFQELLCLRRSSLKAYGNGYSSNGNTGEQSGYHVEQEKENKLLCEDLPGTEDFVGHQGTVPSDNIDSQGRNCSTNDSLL
# Chain of Muscarinic M5 (h) (P08912 whole entry, looked up): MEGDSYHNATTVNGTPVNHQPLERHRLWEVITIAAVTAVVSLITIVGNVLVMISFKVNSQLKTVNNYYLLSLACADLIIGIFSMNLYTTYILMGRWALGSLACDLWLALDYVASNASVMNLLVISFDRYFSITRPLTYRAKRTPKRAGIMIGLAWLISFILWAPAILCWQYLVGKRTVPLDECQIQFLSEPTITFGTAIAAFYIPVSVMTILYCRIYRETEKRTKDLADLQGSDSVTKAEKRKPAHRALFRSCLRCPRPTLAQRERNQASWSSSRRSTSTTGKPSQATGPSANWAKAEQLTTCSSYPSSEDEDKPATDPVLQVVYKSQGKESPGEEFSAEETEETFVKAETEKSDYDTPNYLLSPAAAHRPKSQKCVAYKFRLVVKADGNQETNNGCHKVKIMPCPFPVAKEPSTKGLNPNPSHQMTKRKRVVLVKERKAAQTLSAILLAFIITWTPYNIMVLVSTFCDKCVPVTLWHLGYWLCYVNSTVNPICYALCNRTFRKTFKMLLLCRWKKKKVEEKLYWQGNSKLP
# Chain of Galanin GAL1 (h) (P47211 whole entry, looked up): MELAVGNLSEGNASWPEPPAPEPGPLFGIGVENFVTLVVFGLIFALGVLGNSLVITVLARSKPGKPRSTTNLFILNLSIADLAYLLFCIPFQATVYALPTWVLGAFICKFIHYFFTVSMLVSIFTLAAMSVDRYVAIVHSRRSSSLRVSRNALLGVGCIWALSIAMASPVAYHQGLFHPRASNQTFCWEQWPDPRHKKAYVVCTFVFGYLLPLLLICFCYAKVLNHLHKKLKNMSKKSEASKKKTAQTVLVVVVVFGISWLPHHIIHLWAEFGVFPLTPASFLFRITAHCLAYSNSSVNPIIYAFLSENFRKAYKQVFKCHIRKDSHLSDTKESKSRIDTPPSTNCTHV
# Chain of Tachykinin NK1 (h) (P25103 whole entry, looked up): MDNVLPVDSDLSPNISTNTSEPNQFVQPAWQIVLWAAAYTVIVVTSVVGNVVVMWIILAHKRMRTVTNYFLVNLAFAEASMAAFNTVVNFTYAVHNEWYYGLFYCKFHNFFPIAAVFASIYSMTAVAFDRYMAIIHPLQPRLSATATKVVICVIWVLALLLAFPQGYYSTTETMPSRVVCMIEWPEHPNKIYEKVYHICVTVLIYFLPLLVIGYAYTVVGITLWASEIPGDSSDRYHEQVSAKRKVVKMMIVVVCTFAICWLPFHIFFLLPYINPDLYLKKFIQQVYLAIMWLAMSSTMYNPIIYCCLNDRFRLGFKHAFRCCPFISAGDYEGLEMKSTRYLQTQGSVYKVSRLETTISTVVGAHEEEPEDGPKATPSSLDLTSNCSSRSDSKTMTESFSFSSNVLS
# Chain of Tachykinin NK3 (h) (P29371 whole entry, looked up): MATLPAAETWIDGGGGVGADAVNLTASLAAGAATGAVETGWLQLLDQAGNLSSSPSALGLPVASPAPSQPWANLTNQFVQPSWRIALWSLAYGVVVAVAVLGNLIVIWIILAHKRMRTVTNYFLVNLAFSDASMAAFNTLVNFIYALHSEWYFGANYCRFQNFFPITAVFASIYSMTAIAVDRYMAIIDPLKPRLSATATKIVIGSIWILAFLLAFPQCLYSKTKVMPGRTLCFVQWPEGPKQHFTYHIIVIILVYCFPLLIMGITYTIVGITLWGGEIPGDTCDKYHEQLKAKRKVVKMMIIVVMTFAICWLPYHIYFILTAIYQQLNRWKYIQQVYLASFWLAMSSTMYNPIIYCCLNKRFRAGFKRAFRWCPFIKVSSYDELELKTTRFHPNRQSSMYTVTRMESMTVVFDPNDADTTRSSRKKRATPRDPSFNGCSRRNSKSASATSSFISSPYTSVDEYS
# Chain of PPARγ (h) (P37231 whole entry, looked up): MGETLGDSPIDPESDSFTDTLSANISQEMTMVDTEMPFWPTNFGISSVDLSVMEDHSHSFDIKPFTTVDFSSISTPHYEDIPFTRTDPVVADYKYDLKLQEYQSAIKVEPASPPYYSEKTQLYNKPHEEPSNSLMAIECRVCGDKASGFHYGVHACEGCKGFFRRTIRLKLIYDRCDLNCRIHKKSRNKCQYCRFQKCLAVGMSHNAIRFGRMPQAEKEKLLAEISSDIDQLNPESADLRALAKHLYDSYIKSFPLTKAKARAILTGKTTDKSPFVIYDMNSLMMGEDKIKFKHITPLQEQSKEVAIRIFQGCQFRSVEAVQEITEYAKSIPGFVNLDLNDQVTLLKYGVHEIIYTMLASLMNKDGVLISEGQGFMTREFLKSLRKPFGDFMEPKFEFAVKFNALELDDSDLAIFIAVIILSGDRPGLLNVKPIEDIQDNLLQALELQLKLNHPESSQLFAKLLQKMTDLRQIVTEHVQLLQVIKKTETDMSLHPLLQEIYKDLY
# Chain of D5 (h) (P21918 whole entry, looked up): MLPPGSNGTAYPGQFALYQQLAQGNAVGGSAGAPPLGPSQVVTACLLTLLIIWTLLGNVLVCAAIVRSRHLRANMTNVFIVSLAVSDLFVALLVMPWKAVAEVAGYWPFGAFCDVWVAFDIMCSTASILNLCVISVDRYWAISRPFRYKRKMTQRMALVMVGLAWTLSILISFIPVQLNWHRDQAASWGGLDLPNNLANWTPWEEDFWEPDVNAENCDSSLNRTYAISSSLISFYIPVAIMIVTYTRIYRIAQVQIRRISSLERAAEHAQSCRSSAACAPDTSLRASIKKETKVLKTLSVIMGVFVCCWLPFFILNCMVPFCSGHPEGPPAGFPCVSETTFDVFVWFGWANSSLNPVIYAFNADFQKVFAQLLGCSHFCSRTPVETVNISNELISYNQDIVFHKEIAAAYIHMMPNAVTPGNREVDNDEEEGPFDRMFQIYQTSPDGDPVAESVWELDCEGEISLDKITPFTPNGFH
smiles,measurement,setting,value
"COc1cc(CC(C)N)c(OC)cc1I (racemic) [DOI, (±)-2,5-dimethoxy-4-iodoamphetamine, reference compound]",Ki,5-HT2C receptor,0.48 nM
same,Emax,5-HT2A receptor; IP1 assay,~86%
same,inhibition at 10 µM,5-HT6 (h),64.4%
same,inhibition at 10 µM,Muscarinic M5 (h),62.6%
same,inhibition at 10 µM,5-HT1B (h),52.7%
same,inhibition at 10 µM,[1],53.5% inhibition at 10 μM
same,inhibition at 10 µM,[2],61.7% inhibition at 10 μM
same,inhibition at 10 µM,Adrenergic β2 (h),≥ 80%
same,inhibition at 10 µM,"Histamine H1 (h); antagonist radioligand, read-out: inhibition at 10 μM",64.6%
same,inhibition at 10 µM,5-HT3 (h),< 50%
same,inhibition at 10 µM,Adenosine A1 (h),< 50%
same,binding at 10 μM,Adenosine A2A (h),"NB (inhibited less than 50% of radioligand bound to them, and therefore it can be concluded they do not bind (“no binding,” NB))"
same,inhibition at 10 µM,Adenosine A3 (h),< 50%
same,inhibition at 10 µM,[3],< 50%
same,binding at 10 μM,[4],"NB (inhibited less than 50% of radioligand bound to them, and therefore it can be concluded they do not bind (“no binding,” NB))"
same,inhibition at 10 µM,[5],< 50%
same,inhibition at 10 µM,D5 (h),< 50%
same,inhibition at 10 µM,Endothelin ETA (h),< 50%
same,inhibition at 10 µM,Galanin GAL1 (h),< 50%
same,inhibition at 10 µM,Chemokine CCR1 (h),< 50%
same,binding at 10 μM,TNF-α (h),"NB (inhibited less than 50% of radioligand bound to them, and therefore it can be concluded they do not bind (“no binding,” NB))"
same,inhibition at 10 µM,Histamine H2 (h),< 50%
same,inhibition at 10 µM,Tachykinin NK1 (h),< 50%
same,inhibition at 10 µM,Tachykinin NK3 (h),< 50%
same,inhibition at 10 µM,Neuropeptide Y Y1 (h),< 50%
same,inhibition at 10 µM,Neurotensin NT1 (h),< 50%
same,inhibition at 10 µM,κ-opioid (h),< 50%
same,inhibition at 10 µM,Orphanin ORL1 (h),< 50%
same,inhibition at 10 µM,PPARγ (h),< 50%
same,inhibition at 10 µM,Prostaglandin EP2 (h),< 50%
same,inhibition at 10 µM,[6],< 50%
same,binding at 10 μM,[7],"NB (inhibited less than 50% of radioligand bound to them, and therefore it can be concluded they do not bind (“no binding,” NB))"
same,binding at 10 μM,P2Y (ATP) (rat cortex),"NB (inhibited less than 50% of radioligand bound to them, and therefore it can be concluded they do not bind (“no binding,” NB))"
same,inhibition at 10 µM,Vasopressin V1a (h),< 50%
same,binding at 10 μM,[8],"NB (inhibited less than 50% of radioligand bound to them, and therefore it can be concluded they do not bind (“no binding,” NB))"
same,Decreased binding,[9],Decreased binding by ~38%
"COc1cc(SC(F)(F)F)c(OC)cc1CCN [Compound I-1, 2-(2,5-dimethoxy-4-((trifluoromethyl)thio)phenyl)ethan-1-amine]",inhibition at 10 µM,5-HT2C receptor,> 80%
same,binding selectivity for 5-HT2C over 5-HT2B,"5-HT2C receptor; Ki, [125I]DOI",~12 fold
same,Ki,"5-HT2C receptor; radioligand [125I](±)DOI, read-out: 5-HT2C, Ki",0.55 nM
same,5-HT2AR agonist activity (in words),5-HT2A receptor,pronounced agonists
same,EC50,5-HT2A receptor,4.1 nM
same,activation selectivity for 5-HT2A over 5-HT2B,"5-HT2A receptor; EC50, IP1",~21 fold
same,2A/2B EC50 Selectivity,5-HT2A receptor; IP1 assay,21.5
same,Emax,5-HT2A receptor; IP1 assay,~86%
same,inhibition at 10 µM,5-HT6 (h),> 80%
same,inhibition at 10 µM,Muscarinic M5 (h),> 80%
same,inhibition at 10 µM,5-HT1B (h),> 80%
same,inhibition at 10 µM,[1],68.4% inhibition at 10 μM
same,inhibition at 10 µM,[2],64.1% inhibition at 10 μM
same,inhibition at 10 µM,Adrenergic β2 (h),52.2%
same,inhibition at 10 µM,Histamine H1 (h); read-out: binding at 10 μM,< 50%
same,inhibition at 10 µM,5-HT3 (h),< 50%
same,inhibition at 10 µM,Adenosine A1 (h),< 50%
same,binding at 10 μM,Adenosine A2A (h),"NB (inhibited less than 50% of radioligand bound to them, and therefore it can be concluded they do not bind (“no binding,” NB))"
same,inhibition at 10 µM,Adenosine A3 (h),< 50%
same,inhibition at 10 µM,[3],< 50%
same,binding at 10 μM,[4],"NB (inhibited less than 50% of radioligand bound to them, and therefore it can be concluded they do not bind (“no binding,” NB))"
same,inhibition at 10 µM,[5],< 50%
same,inhibition at 10 µM,D5 (h),< 50%
same,inhibition at 10 µM,Endothelin ETA (h),< 50%
same,inhibition at 10 µM,Galanin GAL1 (h),< 50%
same,inhibition at 10 µM,Chemokine CCR1 (h),< 50%
same,binding at 10 μM,TNF-α (h),"NB (inhibited less than 50% of radioligand bound to them, and therefore it can be concluded they do not bind (“no binding,” NB))"
same,inhibition at 10 µM,Histamine H2 (h),< 50%
same,inhibition at 10 µM,Tachykinin NK1 (h),< 50%
same,inhibition at 10 µM,Tachykinin NK3 (h),< 50%
same,inhibition at 10 µM,Neuropeptide Y Y1 (h),< 50%
same,inhibition at 10 µM,Neurotensin NT1 (h),< 50%
same,inhibition at 10 µM,κ-opioid (h),< 50%
same,inhibition at 10 µM,Orphanin ORL1 (h),< 50%
same,inhibition at 10 µM,PPARγ (h),< 50%
same,inhibition at 10 µM,Prostaglandin EP2 (h),< 50%
same,inhibition at 10 µM,[6],< 50%
same,binding at 10 μM,[7],"NB (inhibited less than 50% of radioligand bound to them, and therefore it can be concluded they do not bind (“no binding,” NB))"
same,binding at 10 μM,P2Y (ATP) (rat cortex),"NB (inhibited less than 50% of radioligand bound to them, and therefore it can be concluded they do not bind (“no binding,” NB))"
same,inhibition at 10 µM,Vasopressin V1a (h),< 50%
same,binding at 10 μM,[8],"NB (inhibited less than 50% of radioligand bound to them, and therefore it can be concluded they do not bind (“no binding,” NB))"
same,Decreased binding,[9],Decreased binding by ~48%
